Reference: patent US20100216827A1 (Metabolex, Inc., priority 2008, published 2010)

Key:
C57BL/6J mice [1] = experiment: Intra-peritoneal glucose tolerance test (IPGTT); type: in vivo; details: 100 mg/kg oral gavage, overnight fasted male C57BL/6J mice, 2 g/kg glucose i.p., vs vehicle
Method: 8-10 week old male C57BL/6J mice (Harlan) were maintained on regular chow diet from Harlan (2018 Teklad Global). For the oral glucose tolerance test (OGTT), on the day of the experiment mice were fasted for 6 hours, then randomized into groups (n=10-15) to receive the tested GPR120 agonist at doses ranging from 30 mg/kg to 100 mg/kg or the vehicle (1% CMC, 2% TWEEN 80). For the intra-peritoneal glucose tolerance test (IPGTT), the mice were fasted for overnight, then randomized into groups (n=10-15) to receive the tested GPR120 agonist at doses ranging from 30 mg/kg to 100 mg/kg or the vehicle (1% CMC, 2% TWEEN 80). Compounds were delivered orally via gavage at 10 mL/kg. Blood glucose levels were measured by glucometer (Ascensia Elite XL, Bayer) at time −30 minutes before administration of compound. Blood glucose was measured again after 30 minutes (at time 0), and then the mice were dosed orally with 3 g/kg glucose at 10 mL/kg or were dosed intraperitoneally with 2 g/kg glucose at 10 mL/kg. […]
Glucose levels were plotted against time, and the incremental area under the curve (AUC) of the glucose excursion was determined from time 0 using Graphpad Prism 5.01. Outliers were excluded using Tukey's box plot outlier test, and statistical significance of differences in AUC of compound treatment compared to vehicle was determined by non-parametric Kruskal-Wallis test with Dunn's post test. […]

C57BL/6J mice [2] = experiment: Oral glucose tolerance test (OGTT); type: in vivo; details: 6 h fasted male C57BL/6J mice, 3 g/kg oral glucose, vs vehicle
Method: 8-10 week old male C57BL/6J mice (Harlan) were maintained on regular chow diet from Harlan (2018 Teklad Global). For the oral glucose tolerance test (OGTT), on the day of the experiment mice were fasted for 6 hours, then randomized into groups (n=10-15) to receive the tested GPR120 agonist at doses ranging from 30 mg/kg to 100 mg/kg or the vehicle (1% CMC, 2% TWEEN 80). For the intra-peritoneal glucose tolerance test (IPGTT), the mice were fasted for overnight, then randomized into groups (n=10-15) to receive the tested GPR120 agonist at doses ranging from 30 mg/kg to 100 mg/kg or the vehicle (1% CMC, 2% TWEEN 80). Compounds were delivered orally via gavage at 10 mL/kg. Blood glucose levels were measured by glucometer (Ascensia Elite XL, Bayer) at time −30 minutes before administration of compound. Blood glucose was measured again after 30 minutes (at time 0), and then the mice were dosed orally with 3 g/kg glucose at 10 mL/kg or were dosed intraperitoneally with 2 g/kg glucose at 10 mL/kg. Blood glucose measurements were taken 20, 40, 60, 90 and 120 minutes after glucose administration, by glucometer (Ascensia Elite XL, Bayer).
Glucose levels were plotted against time, and the incremental area under the curve (AUC) of the glucose excursion was determined from time 0 using Graphpad Prism 5.01. Outliers were excluded using Tukey's box plot outlier test, and statistical significance of differences in AUC of compound treatment compared to vehicle was determined by non-parametric Kruskal-Wallis test with Dunn's post test.
The compounds were tested at 100 mg/kg and the levels of blood glucose were determined in the presence and absence of the tested compounds. The percentage of glucose or intra-peritoneal reduction is reported as a percent reduction in AUC (area under the curve). The tested compound was selected as examples from the exemplified compounds.

human GPR120 = molecular target: T1, human GPR120 (Homo sapiens, UniProt Q5NUL3); experiment: Intracellular Ca2+ (FLIPR Calcium 4, Flexstation) assay in human GPR120 stable HEK293 cell line coexpressing Gqi5; type: cell-based
T1 construct: host or cells: HEK293 cells coexpressing Gqi5
T1 sequence (Q5NUL3 1-361): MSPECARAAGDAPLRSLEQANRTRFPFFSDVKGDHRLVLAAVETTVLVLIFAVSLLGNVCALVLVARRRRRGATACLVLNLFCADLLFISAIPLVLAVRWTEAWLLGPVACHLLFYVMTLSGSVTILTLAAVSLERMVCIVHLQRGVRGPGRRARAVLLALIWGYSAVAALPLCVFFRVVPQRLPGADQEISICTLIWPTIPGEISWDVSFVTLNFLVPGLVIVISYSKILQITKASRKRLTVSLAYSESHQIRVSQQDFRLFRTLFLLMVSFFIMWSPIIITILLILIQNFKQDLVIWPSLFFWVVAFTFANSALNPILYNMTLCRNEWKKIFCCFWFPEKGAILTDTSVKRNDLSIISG
Procedure, shortened: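 Calcium 4 dye-loaded HEK293 cells expressing N-terminally Flag-tagged human GPR120 with Gqi5 (HBSS/20 mM HEPES, pH 7.4; 50 min, 37 °C). Fluorescence (485/525 nm) read for 90 s after addition of compound at 8 concentrations, 0.00001–20 μM; EC50 from Max−Min change. % activity at 5 μM versus maximal GW9508 response (6.7 μM).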

Structure (SMILES) | % reduction in IPGTT AUC (C57BL/6J mice [1]) [%] | % reduction in OGTT AUC (C57BL/6J mice [2]; 30 mg/kg oral gavage) [%] | % reduction in OGTT AUC (C57BL/6J mice [2]; 100 mg/kg oral gavage) [%] | % Activity at 5 μM (human GPR120; 5 μM compound compared to the maximal activity of GW9508 at 6.7 μM (100%)) [%] | EC50 (human GPR120; human GPR120 stably expressing cells, 8 concentrations 0.00001 to 20 μM, read-out: EC50 ≦ 1 μM) [nM]
Cc1cc(COc2c(F)cc(CC(C)C(=O)O)cc2F)n(-c2ccc(Cl)cc2)n1 (stereo not drawn) [Example 36, 3-(4-((1-(4-chlorophenyl)-3-methyl-1H-pyrazol-5-yl)methoxy)-3,5-difluorophenyl)-2-methylpropanoic acid] | 24 | 15 | 45.2 | 96 | ≤ 1000
Cc1cc(COc2c(F)cc(C[C@@H](C)C(=O)O)cc2F)n(-c2ccc(Cl)cc2)n1 [Example 43, (R)-3-(4-((1-(4-chlorophenyl)-3-methyl-1H-pyrazol-5-yl)methoxy)-3,5-difluorophenyl)-2-methylpropanoic acid] |  | 20 | 40 |  | 
Cc1cc(COc2c(F)cc(C[C@H](C)C(=O)O)cc2F)n(-c2ccc(Cl)cc2)n1 [Example 44, (S)-3-(4-((1-(4-chlorophenyl)-3-methyl-1H-pyrazol-5-yl)methoxy)-3,5-difluorophenyl)-2-methylpropanoic acid] |  | 33 | 39 |  | 
